Experimental data taken from PubChem BioAssay (NCI).
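Protocol summary: plate cells (96-well), add compound at 5 concentrations, incubate 48 h, interpolate endpoints linearly. TGI: concentration producing complete growth inhibition.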

What was measured:
Assay in all cases: inhibition of tumour cell growth, NCI panel, 48 h
MDA-N = system: MDA-N
SF-268 CNS = system: SF-268 CNS
UACC-62 melanoma = system: UACC-62 melanoma
M14 melanoma = system: M14 melanoma
KM12 colon = system: KM12 colon
MALME-3M melanoma = system: MALME-3M melanoma
OVCAR-4 ovarian = system: OVCAR-4 ovarian
MDA-MB-435 = system: MDA-MB-435
A549 NSCLC = system: A549 NSCLC
UO-31 renal = system: UO-31 renal
DU-145 prostate = system: DU-145 prostate

SMILES	TGI (MDA-N)	TGI (SF-268 CNS)	TGI (UACC-62 melanoma)	TGI (M14 melanoma)	TGI (KM12 colon)	TGI (MALME-3M melanoma)	TGI (OVCAR-4 ovarian)	TGI (MDA-MB-435)	TGI (A549 NSCLC)	TGI (UO-31 renal)	TGI (DU-145 prostate)
CNC(=S)N/N=C/c1cccc(C)n1	> 100 µM	> 76 µM	56.4 µM	47.8 µM	> 100 µM	> 100 µM	> 100 µM	> 100 µM	> 100 µM	> 100 µM	> 83.2 µM
CC12Cc3cc4c(cc3C1(c1ccc([N+](=O)[O-])cc1)OCCO2)OCO4 (configuration not stated)	> 100 µM	71.6 µM	> 100 µM	> 100 µM	> 100 µM	> 100 µM	> 100 µM	> 100 µM	> 100 µM	> 100 µM	> 100 µM
CC1C[C@]2(C)C(=O)N(c3ccccc3)C(=N)[C@@H]2N(C)c2ccccc21 (some centres not stated)	> 100 µM	> 100 µM	> 100 µM	> 100 µM	> 100 µM	> 100 µM	> 100 µM	> 100 µM	> 100 µM	> 100 µM	> 100 µM
CNC(=O)c1[nH]cnc1/N=N/N(C)N	> 100 µM	> 100 µM	> 100 µM	> 100 µM	> 100 µM	> 100 µM	> 100 µM	> 100 µM	> 100 µM	> 100 µM	> 100 µM
Cc1nc2c(sc3nc4ccccc4n32)c(=O)[nH]1	> 100 µM	> 100 µM	> 100 µM	> 100 µM	> 100 µM	> 100 µM	> 100 µM	> 100 µM	> 100 µM	> 100 µM	> 100 µM
CN(C)Cc1cc(N=Nc2ccccc2)cc(CN(C)C)c1O	> 100 µM	> 100 µM	> 100 µM	> 100 µM	> 100 µM	> 100 µM	> 100 µM	> 100 µM	> 100 µM	> 100 µM	> 100 µM
Cc1nnc2n1-c1ccccc1C(=S)N1CSCC21 (configuration not stated)	> 100 µM	> 100 µM	> 100 µM	> 100 µM	> 100 µM	> 100 µM	> 100 µM	> 100 µM	> 100 µM	> 100 µM	> 100 µM
